US8927500B2, “Peptidomimetic macrocycles” (Aileron Therapeutics, Inc., priority 2012, dated 2015)
Where two headings read alike, the source gives them in different places. Where a SMILES comes first, the peptide text is derived from it. Bridges are numbered along the chain shown (N, C = ends). [ ]: non-standard residue; d: D form. dPhe(4-CF3) = N[C@H](Cc1ccc(C(F)(F)F)cc1)C(=O)O; R8 = C=CCCCCCC[C@@](C)(N)C(=O)O; S8 = C=CCCCCCC[C@](C)(N)C(=O)O; Cba = N[C@@H](CC1CCC1)C(=O)O; R5 = C=CCCC[C@@](C)(N)C(=O)O; S5 = C=CCCC[C@](C)(N)C(=O)O; Nle = CCCC[C@H](N)C(=O)O; Aib = CC(C)(N)C(=O)O

Experiments:
[1] = molecular target: MDM2 (Homo sapiens, UniProt Q00987); test: Competitive fluorescence polarization assay for MDM2; type: binding; conditions: for Ki: read-out: Ki (MDM2)
MDM2, sequence (Q00987 1-125): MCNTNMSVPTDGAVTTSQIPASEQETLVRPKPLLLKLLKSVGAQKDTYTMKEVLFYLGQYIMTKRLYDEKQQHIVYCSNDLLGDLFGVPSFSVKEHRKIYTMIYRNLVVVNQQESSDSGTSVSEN

[2] = molecular target: T1, MDMX (Homo sapiens, UniProt O15151); test: Competitive fluorescence polarization assay for MDMX; type: binding; conditions: competitive FP assay; for IC50: read-out: IC50 (MDMX); for Ki: read-out: Ki (MDMX)
T1 sequence (O15151 1-125): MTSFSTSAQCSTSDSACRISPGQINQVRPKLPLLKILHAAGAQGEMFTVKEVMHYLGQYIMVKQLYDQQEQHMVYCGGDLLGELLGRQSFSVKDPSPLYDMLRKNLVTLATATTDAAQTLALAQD

[3] = system: Caspase 3; test: Caspase 3 detection assay in SJSA1 cells; type: cell-based; conditions: 48 h, Caspase 3 activation over DMSO-treated cells; for caspase 3 uM: 3 uM peptide; for caspase 10 uM: 10 uM peptide; for caspase 30 uM: 30 uM peptide; for caspase 0.3 uM: 0.3 uM peptide
[4] = competitive FP assay, MDM2, read-out: IC50 (MDM2)

Structure (SMILES) | IC50 [1, 4] | Ki ([1]; competitive FP assay, MDM2) | IC50 [2] | Ki [2] | caspase 3 uM [3] | caspase 10 uM [3] | caspase 30 uM [3] | caspase 0.3 uM [3] | caspase 1 uM ([3]; 1 uM peptide) | IC50 ([1]; IC50 (MDM2))
CC[C@H](C)[C@H](NC(=O)[C@H](C)NC(=O)[C@H](C)NC(=O)[C@]1(C)CCCC=CCCCCCC[C@@](C)(NC(=O)[C@H](Cc2ccccc2)NC(=O)[C@@H](NC(=O)[C@H](CC(C)C)NC(C)=O)[C@@H](C)O)C(=O)N[C@@H](C)C(=O)N[C@@H](Cc2ccc(O)cc2)C(=O)N[C@@H](Cc2c[nH]c3ccccc23)C(=O)N[C@@H](C)C(=O)N[C@@H](CCC(N)=O)C(=O)N[C@@H](CC(C)C)C(=O)N1)C(=O)N[C@H](C)C(N)=O (single isomer, unassigned) [compound 70] | 0.1 to 1 µM | < 0.01 µM | 0.1 to 1 µM | 0.01 to 0.1 µM | 1 | 9 | 26 | – | – | –
CC(=O)N[C@@H](CC(C)C)C(=O)N[C@H](C(=O)N[C@@H](Cc1ccccc1)C(=O)N[C@]1(C)CCCCCCC=CCCC[C@@](C)(C(=O)N[C@@H](C)C(=O)N[C@H](C(=O)NCC(N)=O)C(C)C)NC(=O)[C@H](CC(C)C)NC(=O)[C@H](CCC(N)=O)NC(=O)[C@H](C)NC(=O)[C@H](Cc2c[nH]c3ccccc23)NC(=O)[C@H](Cc2ccc(O)cc2)NC(=O)[C@H](C)NC1=O)[C@@H](C)O (single isomer, unassigned) [compound 109] | – | – | – | – | 4 | 16 | 25 | – | – | –
CC(=O)N[C@@H](C)C(=O)N[C@@H](C)C(=O)N[C@@H](CC(C)C)C(=O)N[C@H](C(=O)N[C@@H](Cc1ccccc1)C(=O)N[C@]1(C)CCCCCCC=CCCC[C@@](C)(C(=O)N[C@@H](CO)C(=O)N[C@@H](C)C(=O)N[C@@H](C)C(=O)N[C@@H](C)C(=O)N[C@H](C)C(N)=O)NC(=O)[C@H](CC2CCC2)NC(=O)[C@H](CCC(N)=O)NC(=O)[C@H](C)NC(=O)[C@H](Cc2c[nH]c3ccccc23)NC(=O)[C@H](Cc2ccc(O)cc2)NC(=O)[C@H](CCC(=O)O)NC1=O)[C@@H](C)O (single isomer, unassigned) [compound 358] | – | – | – | – | 3 | 6 | 24 | 1 | 2 | –
CC(=O)N[C@@H](CC(C)C)C(=O)N[C@H](C(=O)N[C@@H](Cc1ccccc1)C(=O)N[C@]1(C)CCCCCCC=CCCC[C@@](C)(C(=O)N[C@@H](CO)C(=O)N[C@@H](C)C(=O)NC(C)(C)C(N)=O)NC(=O)[C@H](CC(C)C)NC(=O)[C@H](CCC(N)=O)NC(=O)[C@H](C)NC(=O)[C@H](Cc2c[nH]c3ccccc23)NC(=O)[C@H](Cc2ccc(O)cc2)NC(=O)[C@H](C)NC1=O)[C@@H](C)O [compound 10] (Ac-LTF[R8]AYWAQL[S5]SA[Aib]-NH2; staple 4-11) | 0.1 to 1 µM | 0.01 to 0.1 µM | 0.1 to 1 µM | 0.01 to 0.1 µM | 1 | 17 | 32 | 1 | – | –
CC(=O)N[C@@H](CC(C)C)C(=O)N[C@H](C(=O)N[C@@H](Cc1ccccc1)C(=O)N[C@]1(C)CCCCCCC=CCCC[C@@](C)(C(=O)N[C@@H](C)C(=O)N[C@@H](Cc2c[nH]cn2)C(=O)N[C@@H](Cc2ccccc2)C(=O)N[C@@H](C)C(N)=O)NC(=O)[C@H](CC(C)C)NC(=O)[C@H](CCC(N)=O)NC(=O)[C@H](C)NC(=O)[C@H](Cc2c[nH]c3ccccc23)NC(=O)[C@H](Cc2ccc(O)cc2)NC(=O)[C@H](C)NC1=O)[C@@H](C)O [compound 50] (Ac-LTF[R8]AYWAQL[S5]AHFA-NH2; staple 4-11) | 0.01 to 0.1 µM | < 0.01 µM | 0.1 to 1 µM | 0.01 to 0.1 µM | 8 | 29 | 29 | – | – | –
CC(=O)N[C@@H](CCC(=O)O)C(=O)N[C@H](C(=O)N[C@@H](Cc1ccccc1)C(=O)N[C@]1(C)CCCCCCC=CCCC[C@@](C)(C(=O)N[C@@H](CO)C(=O)N[C@@H](CC(C)C)C(=O)N[C@@H](C)C(N)=O)NC(=O)[C@H](CC(C)C)NC(=O)[C@H](CCC(N)=O)NC(=O)[C@H](C)NC(=O)[C@H](Cc2c[nH]c3ccccc23)NC(=O)[C@H](Cc2ccc(O)cc2)NC(=O)[C@H](C(C)C)NC1=O)[C@@H](C)O [compound 127] (Ac-ETF[R8]VYWAQL[S5]SLA-NH2; staple 4-11) | < 0.01 µM | < 0.01 µM | 0.1 to 1 µM | 0.01 to 0.1 µM | 1 | 4 | 13 | 1 | – | –
CCCC[C@H](NC(=O)[C@H](C)NC(=O)[C@H](C)NC(=O)[C@]1(C)CCCC=CCCCCCC[C@@](C)(NC(=O)[C@H](Cc2ccccc2)NC(=O)[C@@H](NC(=O)[C@H](CC(C)C)NC(C)=O)[C@@H](C)O)C(=O)N[C@@H](CCC(=O)O)C(=O)N[C@@H](Cc2ccc(O)cc2)C(=O)N[C@@H](Cc2c[nH]c3ccccc23)C(=O)N[C@@H](C)C(=O)N[C@@H](CCC(N)=O)C(=O)N[C@@H](CC2CCC2)C(=O)N1)C(=O)N[C@@H](C)C(N)=O [compound 238] (Ac-LTF[R8]EYWAQ[Cba][S5]AA[Nle]A-NH2; staple 4-11) | 0.01 to 0.1 µM | < 0.01 µM | 0.01 to 0.1 µM | 0.01 to 0.1 µM | 2 | 4 | 21 | 1 | – | –
CC(=O)N[C@@H](C(=O)N[C@]1(C)CCCC=CCCC[C@](C)(C(=O)N[C@H](Cc2ccc(C(F)(F)F)cc2)C(=O)N[C@H](CCC(=O)O)C(=O)N[C@H](CCCCN)C(=O)N[C@H](CC(C)C)C(=O)N[C@H](CC(C)C)C(=O)N[C@H](CCCNC(=N)N)C(N)=O)NC(=O)[C@@H](C)NC(=O)[C@@H](Cc2ccc(O)cc2)NC(=O)[C@@H](Cc2c[nH]c3ccccc23)NC1=O)[C@H](C)O [compound 752] (Ac-[dT][R5][dW][dY][dA][R5][dPhe(4-CF3)][dE][dK][dL][dL][dR]-NH2; staple 2-6) | 0.1 to 1 µM | – | > 1 µM | – | – | – | – | – | – | –
CC(=O)N[C@@H](C(=O)N[C@H](C)C(=O)N[C@H](Cc1c[nH]c2ccccc12)C(=O)N[C@H](Cc1ccc(O)cc1)C(=O)N[C@]1(C)CCCC=CCCC[C@](C)(C(=O)N[C@H](CC(C)C)C(=O)N[C@H](CC(C)C)C(=O)N[C@H](CCCNC(=N)N)C(N)=O)NC(=O)[C@@H](CCC(=O)O)NC(=O)[C@@H](Cc2ccc(C(F)(F)F)cc2)NC(=O)[C@@H](CC(N)=O)NC1=O)[C@H](C)O [compound 753] (Ac-[dT][dA][dW][dY][R5][dN][dPhe(4-CF3)][dE][R5][dL][dL][dR]-NH2; staple 5-9) | 0.01 to 0.1 µM | – | > 1 µM | – | – | – | – | – | – | –
CC(=O)N[C@@H](C(=O)N[C@H](C)C(=O)N[C@H](Cc1c[nH]c2ccccc12)C(=O)N[C@H](Cc1ccc(O)cc1)C(=O)N[C@H](C)C(=O)N[C@]1(C)CCCC=CCCC[C@](C)(C(=O)N[C@H](CC(C)C)C(=O)N[C@H](CCCNC(=N)N)C(N)=O)NC(=O)[C@@H](CCCCN)NC(=O)[C@@H](CCC(=O)O)NC(=O)[C@@H](Cc2ccc(C(F)(F)F)cc2)NC1=O)[C@H](C)O [compound 754] | 0.1 to 1 µM | – | > 1 µM | – | – | – | – | – | – | –
CC(=O)N[C@@H](C(=O)N[C@H](C)C(=O)N[C@H](Cc1c[nH]c2ccccc12)C(=O)N[C@H](Cc1ccc(O)cc1)C(=O)N[C@H](C)C(=O)N[C@H](CC(N)=O)C(=O)N[C@H](Cc1ccc(C(F)(F)F)cc1)C(=O)N[C@H](CCC(=O)O)C(=O)N[C@]1(C)CCCC=CCCC[C@](C)(C(=O)N[C@H](C)C(N)=O)NC(=O)[C@@H](CCCNC(=N)N)NC(=O)[C@@H](CC(C)C)NC(=O)[C@@H](CC(C)C)NC1=O)[C@H](C)O [compound 755] (Ac-[dT][dA][dW][dY][dA][dN][dPhe(4-CF3)][dE][R5][dL][dL][dR][R5][dA]-NH2; staple 9-13) | < 0.01 µM | – | > 1 µM | – | – | – | – | – | – | –
CC(=O)N[C@@H](C(=O)N[C@@]1(C)CCCCCCC=CCCC[C@](C)(C(=O)N[C@H](CC(C)C)C(=O)N[C@H](CC(C)C)C(=O)N[C@H](CCCNC(=N)N)C(N)=O)NC(=O)[C@@H](CCC(=O)O)NC(=O)[C@@H](Cc2ccc(C(F)(F)F)cc2)NC(=O)[C@@H](CC(N)=O)NC(=O)[C@@H](C)NC(=O)[C@@H](Cc2ccc(O)cc2)NC(=O)[C@@H](Cc2c[nH]c3ccccc23)NC1=O)[C@H](C)O [compound 756] (Ac-[dT][S8][dW][dY][dA][dN][dPhe(4-CF3)][dE][R5][dL][dL][dR]-NH2; staple 2-9) | 0.01 to 0.1 µM | – | > 1 µM | – | – | – | – | – | – | –
CC(=O)N[C@@H](C(=O)N[C@H](C)C(=O)N[C@H](Cc1c[nH]c2ccccc12)C(=O)N[C@H](Cc1ccc(O)cc1)C(=O)N[C@@]1(C)CCCCCCC=CCCC[C@](C)(C(=O)N[C@H](C)C(N)=O)NC(=O)[C@@H](CC(C)C)NC(=O)[C@@H](CC(C)C)NC(=O)[C@@H](CCCCN)NC(=O)[C@@H](CCC(=O)O)NC(=O)[C@@H](Cc2ccc(C(F)(F)F)cc2)NC(=O)[C@@H](CC(N)=O)NC1=O)[C@H](C)O [compound 757] (Ac-[dT][dA][dW][dY][S8][dN][dPhe(4-CF3)][dE][dK][dL][dL][R5][dA]-NH2; staple 5-12) | – | – | > 1 µM | – | – | – | – | – | – | < 0.01 µM
CC(=O)N[C@@H](C(=O)N[C@H](C)C(=O)N[C@H](Cc1c[nH]c2ccccc12)C(=O)N[C@H](Cc1ccc(O)cc1)C(=O)N[C@H](C)C(=O)N[C@@]1(C)CCCCCCC=CCCC[C@](C)(C(=O)N[C@H](C)C(N)=O)NC(=O)[C@@H](CCCNC(=N)N)NC(=O)[C@@H](CC(C)C)NC(=O)[C@@H](CC(C)C)NC(=O)[C@@H](CCCCN)NC(=O)[C@@H](CCC(=O)O)NC(=O)[C@@H](Cc2ccc(C(F)(F)F)cc2)NC1=O)[C@H](C)O [compound 758] (Ac-[dT][dA][dW][dY][dA][S8][dPhe(4-CF3)][dE][dK][dL][dL][dR][R5][dA]-NH2; staple 6-13) | 0.01 to 0.1 µM | – | > 1 µM | – | – | – | – | – | – | –
